For orientation: IC50 means the concentration that gives 50% inhibition.

This is an account of results in patent US9962341B2, “Active pharmaceutical ingredient (API) comprising cannabinoids for use in the treatment of cancer” (GW Pharma Limited, priority 2014, dated 2018).

Holding throughout (format): cell-based
In one test the test system is WM115. Kind of test: Cell viability (CellTiter-Blue, 72 h), WM115 melanoma cells. Conditions: WM115, 1% FBS, 72 h; read-out: Cell line IC50 value. Here is the method: (§1) The following cell lines were tested in this example: Lung Cancer (A549, NCI-H460); Pancreatic cancer (PANC1, Mia-Pa-Ca-2); Melanoma (WM115, A375); Ovarian cancer (OVCAR3, SKOV3); Gastric cancer (MKN45, HGC-27); Renal cancer (ACHN) and Bladder Cancer (RT112).
(§2) Each tumour cell line was maintained in vitro in RPMI 1640+10% heat inactivated FBS and 2 mM L-glutamine (growth media) at 37° C. in 5% CO2 and humidified conditions. The cells were harvested, washed, re-suspended into growth medium and counted. The cells were re-suspended into assay media (RPMI 1640+5% heat inactivated FBS+ and 2 mM L-glutamine) at 4×10^4 cells/ml (dependent upon cell type) and plated into the middle 240 wells of 384 well tissue culture plates (Corning CellBind, black-wall plates) 25 μl/well aliquots; 50 μl of growth media was aliquoted into the outer wells. There were 3 plates for each cell line.
(§3) The plates were incubated overnight at 37° C., in 5% humidified CO2.
(§4) The phytocannabinoid test compounds were prepared in 100% DMSO vehicle at a stock concentration of 20 and 40 mM.
(§5) Starting with the 20 mM stock in DMSO, this was serially diluted (2 fold) in DMSO in a 96-well plate, to 20 (no dilution), 10, 5, 2.5, 1.25, 0.625, 0.315, 0.157 and […]. Following this, 10 ul of each compound dilution was diluted into 990 ul of 1% (v/v) FBS media in a deep well block making the final concentrations of 200, 100, 50, 25, 12.5, 6.25, 3.125, 1.56 and 0.79 μM (2× final assay concentrations and 1% DMSO).
(§6) An equal volume of each cannabinoid in the combination (stock concentration 40 mM) was mixed together to make a stock of 20 mM of each cannabinoid in DMSO. This was serially diluted (2 fold) in DMSO in a 96-well plate, to 20 (no dilution), 10, 5, 2.5, 1.25, 0.625, 0.315, 0.157 and […]. Following this, 10 ul of each combination dilution was diluted into 990 ul of 1% (v/v) FBS media in a deep well block making the final concentrations of 200, 100, 50, 25, 12.5, 6.25, 3.125, 1.56 and 0.79 μM (2× final assay concentrations and 1% DMSO).
(§7) Cisplatin (stock of 1 mg/ml=3.33 mM in water) was diluted in 1% FBS media to give a stock concentration of 1 mM. This was then diluted in 1% FBS media from the stock solution to 200 μM, then serially diluted (3-fold) in 1% FBS media to 200 (no dilution), 66.66, 22.22, 7.41, 2.47, 0.82, 0.27, 0.09, 0.03 μM (2× final assay concentrations; no DMSO).
(§8) The plates were incubated for 72 h at 37° C. in 5% humidified CO2. To develop the plates, at 72 h, 10 μl of CellTiter-Blue™ reagent was added to each test/blank well.
(§9) The plates were incubated at 37° C., 5% humidified CO2. Fluorescence was measured using a Flex II Station plate reader (570 nm excitation wavelength, 600 nm emission wavelength, 590 nm cut-off) after 3 h.
(§10) The phytocannabinoid compounds CBD, CBGA, CBG, CBDA, THCV and THC were tested on a panel of lung (A549, NCI-H460), pancreatic (PANC1, Mia-Pa-Ca-2), melanoma (WM115, A375), ovarian (OVCAR3, SKOV3), gastric (MKN45, HGC-27), renal (ACHN) and bladder (RT112) cancer cell lines according to the protocol for 72 h in media containing 1% FBS.
(§11) The IC50 values for each phytocannabinoid and combination of CBD with the other phytocannabinoids was calculated for each cell line. The raw data values expressed in relative fluorescent units were normalised to the vehicle for each individual plate and any reduction in fluorescence indicated a decrease in viability.
(§12) This calculation was as described in Example 1 above.

For another test, the system named is HGC-27. Kind of test: Cell viability (CellTiter-Blue, 72 h), HGC-27 gastric cancer cells. Conditions: HGC-27, 1% FBS, 72 h; read-out: Cell line IC50 value. Here is the method: as §1, §2, §3, §4, §5, §6, §7, §8, §9, §10, §11, §12
The next test concerns SKOV3. Kind of test: Cell viability (CellTiter-Blue, 72 h), SKOV3 ovarian cancer cells. Conditions: SKOV3, 1% FBS, 72 h; read-out: Cell line IC50 value. Here is the method: as §1, §2, §3, §4, §5, §6, §7, §8, §9, §10, §11, §12
(In general: The colour change of resazurin is a common sign of viable cells or microbes.)

Another test concerns A375. Kind of test: Cell viability (CellTiter-Blue, 72 h), A375 melanoma cells. Conditions: A375, 1% FBS, 72 h; read-out: Cell line IC50 value. Here is the method:
as §1, §2, §3, §4, §5, §6, §7, §8, §9, §10, §11, §12

A further test deals with MKN45. The experiment in a line: Cell viability (CellTiter-Blue, 72 h), MKN45 gastric cancer cells. To be noted: MKN45, 1% FBS, 72 h; read-out: Cell line IC50 value. Here is the method:
as §1, §2, §3, §4, §5, §6, §7, §8, §9, §10, §11, §12

A further test concerns OVCAR3. The experiment in a line: Cell viability (CellTiter-Blue, 72 h), OVCAR3 ovarian cancer cells. Conditions: OVCAR3, 1% FBS, 72 h; read-out: Cell line IC50 value. As to the method: as §1, §2, §3, §4, §5, §6, §7, §8, §9, §10, §11, §12
A further test has as its system RT112. Kind of test: Cell viability (CellTiter-Blue, 72 h), RT112 bladder cancer cells. To be noted: RT112, 1% FBS, 72 h; read-out: Cell line IC50 value. As to the method: as §1, §2, §3, §4, §5, §6, §7, §8, §9, §10, §11, §12
The subject of a further test is PANC-1. Kind of test: Cell viability (CellTiter-Blue, 72 h), PANC-1 pancreatic cancer cells. To be noted: Homo sapiens; PANC-1, 1% FBS, 72 h; read-out: Cell line IC50 value. Here is the method: as §1, §2, §3, §4, §5, §6
(§13) Gemcitabine SOC was prepared in 100% DMSO to give a stock concentration of 20 mM. This was then serially diluted (3 fold) in DMSO in a 96-well plate, to 20 (no dilution), 6.6, 2.2, 0.741, 0.247, 0.082, 0.027, 0.009 and 0.003 mM. Following this, 10 ul of each dilution was further diluted into 990 ul of 1% (v/v) FBS media making the final concentrations of 200 (no dilution), 66.66, 22.22, 7.41, 2.47, 0.82, 0.27, 0.09, 0.03 μM (2× final assay concentrations and 1% DMSO).
as §8, §9, §10, §11, §12

For another test, the system named is Mia-Pa-Ca-2. Kind of test: Cell viability (CellTiter-Blue, 72 h), Mia-Pa-Ca-2 pancreatic cancer cells. Conditions: Homo sapiens, MIA PaCa-2, 72 h, read-out: Cell line IC50 value. Here is the method:
as §1, §2, §3, §4, §5, §6, §13, §8, §9, §10, §11, §12

Turning to `N.N.[Cl][Pt][Cl]` [Cisplatin, reference compound], the IC50 in the test on WM115 stood at 35 µM; with HGC-27 it was 47 µM; with SKOV3, 4.5 µM; in the test with A375 it was 6.3 µM; in the test with MKN45 it was 9.7 µM; with OVCAR3 it was 7.7 µM. Further, the IC50 with RT112 stood at 27 µM.

Turning to `Nc1ccn([C@@H]2O[C@H](CO)[C@@H](O)C2(F)F)c(=O)n1` [Gemcitabine, reference compound], the IC50 in the test with PANC-1 and in the test on Mia-Pa-Ca-2 was more than 100 µM each time.
